Assay results published in US10137099B2, “Activation of AMP-protein activated kinase by oxaloacetate compounds” (priority 2010, dated 2018).
Read-outs that look alike come from different tables or passages of the source. Values belong to the compound of their own block, whether it stands above or below them.

Columns and labels:
ob/ob and db/db mice = details: 8 day administration; cited from earlier work
[1] = Stability and shelf life of oxaloacetic acid forms; details: for stability / shelf life at room temperature: kept dry, reduced water content
From the text: (§1) The keto-oxaloacetate decarboxylates quickly to pyruvate. As the keto-oxaloacetate form disappears due to decarboxylation, the enol and hydrated form convert to keto-oxaloacetate, and then also decarboxylate into carbon dioxide and pyruvate, until all the oxaloacetate is consumed. Note that neither of the byproducts of oxaloacetate decarboxylation, carbon dioxide and pyruvate, are effective in activating AMPK.
(§2) The keto-oxaloacetate decarboxylates quickly, followed by enol conversion to keto form and further decarboxylation. […] Na-OAA has no shelf life, and is not available commercially.
There is an energy gap between the enol and keto form which is bridged when the compounds are exposed to water, however, this same energy gap prevents the conversion of the enol to keto form when the product is kept dry. Once there is a conversion to the keto form, decarboxylation can spontaneously occur at temperatures above the freezing point of water. […] Drying effectiveness can be increased by increasing the drying time, drying under vacuum, by using anhydrous washes of isopropyl alcohol or ethyl alcohol to absorb the remaining water (and then evaporating the alcohol), or by performing multiple washes with hexane or non-water soluble solvent to physically remove the water, typically after an alcohol wash. The non-water soluble solvent would then be evaporated off. […] Hexane is a residual solvent in many commercial food preparations including decaffeinated coffee, and is not toxic in small quantities. Alternatively, the final wash can be performed with liquefied propane, liquefied butane, ethyl acetate, ethane, carbon dioxide, or nitrous oxide to reduce the water content.
Biochem., vol. 26, pp. 418-421, 1950, also in Heidelberger; “The Synthesis of Oxalacetic Acid-1-C14 and Orotic Acid-6-C14”, Biochem. Prepn. 3, 59 (1953) pp 4704-4706.

[2] = Example 1: non-diabetic subject, blood panel after 6 months; format: in vivo, human
Procedure: A non-diabetic subject is given 100 mg anhydrous enol-oxaloacetic acid in solid form for a period of 6 months to reduce blood triglycerides and glucose levels. AMPK is activated and the treatment is effective.

[3] = Example 3: body weight of obese patient over three months; format: in vivo, human
From the text: AMPK is activated and the patient drops in weight from 258 to 234 pounds in a three month period. The patient is no longer obese.

[4] = Example 4: maintenance of weight loss after diet; format: in vivo, human; details: 100 mg daily
From the text: A patient successfully loses 24 pounds.

[5] = Example 5: blood pressure in patient with hypertension; format: in vivo, human; details: 100 mg daily for three months
From the text: A patient is diagnosed with hypertension. […] The patient's blood pressure decreases by 10%.

[6] = Example 2: fasting blood glucose tracked for several weeks; format: in vivo, human; details: 100 mg daily
From the text: The amplitude of the patient's swings in fasting glucose decrease by 55% due to improved glucose homeostasis. AMPK is activated and overall fasting glucose levels drop by 8%. The data is shown in Graph 3.

[7] = 21 diabetic patients, cited from earlier work
[8] = tested on: human A549 lung cancer tissue; details: uM levels, contact solution of 76 uM; not within normal tissue; cancer tissue unable to reproduce for six weeks; cited from earlier work
[9] = Blood-brain barrier penetration
From the text: AMPK activation has been associated with reduced Alzheimer risk and potentially with Alzheimer's treatment (Richter, Erik and Ruderman, Neil, “AMPK and the biochemistry of exercise: implications for human health and disease” Biochem. J. (2009) 418, 261-275). Thus OAA may be used for reducing the risk of Alzheimer's disease and for treatment of the same.

[10] = Removal of orally consumed oxaloacetic acid from blood stream into cells; format: in vivo, human
Procedure: The oxaloacetic acid is converted to the ionic form oxaloactate in the digestive tract, and is then absorbed into the body and is distributed throughout the body via the bloodstream. […] At time 0, the amount detected was 0 ug/100 ml blood, at time 30 minutes 0 ug/100 ml blood, and at time 60 minutes ranged from […] blood. […] Within the cells the oxaloacetate reacts into L-malate as it encounters the enzyme malate dehydrogenase (MDH). MDH is ubiquitous in human cells, and the conversion of oxaloacetate to malate is very energetically favorable (the Gibbs Free Energy, delta G, is highly negative (−29.7) indicating the reaction is very favorable to proceed). As oxaloacetate is converted to malate, NADH is converted to NAD+. The resulting increase in the NAD+/NADH ratio leads to the phosphorylation (activation) of AMPK (Rafaeloff-Phail R, Ding L, Conner L, et al. “Biochemical regulation of mammalian AMP-activated protein Kinase activity by NAD and NADH”. J Biol Chem 2004; 279: 52934-9). AMPK serves to stimulate glucose uptake into the skeltal tissues and thereby reduces glucose levels. The immediate reduction is best seen with a glucose tolerance test in individuals that have defective leptin signaling (including overweight and obese persons) that are fasting. […]

rats = details: cited from earlier work
[11] = Hydrated/keto/enol composition in water; format: physicochemical; details: pH 6.9 (oxaloacetic acid), Na-OAA dissolved in water
From the text: The oxaloacetate can be in three forms depending on the pH of the solution. At low pH (<1.5) and low temperature (<4 degrees C.) oxaloacetate hydrates. […] The hydrated form is mostly converted once it enters the higher pH of the body outside of the intestinal tract to the keto and enol form. […] Enol-oxaloacetate is convert to keto-oxaloacetate with the enzyme enol-keto tautomerase, a ubiquitous enzyme throughout the human body.
as §1, §2

in vivo = details: rat
From the text: (§3) I have investigated the toxicity of OAA in an acute study and two chronic studies.
(§4) The dose ratio between toxic and therapeutic effects is the therapeutic index and it can be expressed as the ratio LD50/ED50.

C. elegans = C. elegans lifespan with functional and non-functional AMPK; format: in vivo, Caenorhabditis elegans; details: for lifespan of worms with non-functional alpha AMPK subunit: dysfunctional aak-2 subunit; for lifespan of worms with non-functional alpha AMPK subunit / increase of lifespan: 8 mM oxaloacetate; for increase of lifespan: worms with functional FOXO/DAF-16 and AMPK, p<0.001
Procedure: I have assayed the CR mimetic OAA for AMPK activation by using the worm C. elegans containing a non-functional alpha AMPK subunit, and have compared lifespan with and without the functional AMPK subunit. […] Graph 1 is the Kaplan-Meyer survival curves for worms with functional and non-functional AMPK showing the difference in lifespan.
AMPK activation is necessary to increase lifespan of C. elegans when exposed to 8 mM concentrations of oxaloacetate. The increase in lifespan averages approximately 25%, p<0.001.

[12] = Glucose related effects of supplementation in humans; format: in vivo, human; details: non-diabetic patients
From the text: Glucose related effects in humans have measured an 8 to 10% drop in fasting glucose levels in non-diabetic patients, a drop in triglyceride levels by 10% and a 55% reduction in the amplitude of fasting blood glucose levels.

mouse = tested on: mouse
From the text: as §3, §4

older mice = experiment: Chronic eighteen-month study in older mice; format: in vivo; details: 380 mg OAA/kg of mouse, eighteen months
[13] = Decrease (Improvement), February to August 2007

Compound: NC(=O)c1ncn([C@@H]2O[C@H](CO)[C@@H](O)[C@H]2O)c1N [AICAR, 5-Aminoimidazole-4-darboxamide ribonucleoside]
reduction of blood glucose (ob/ob and db/db mice): 35%

Compound: O=C(O)CC(=O)C(=O)O [anhydrous enol-oxaloacetic acid]
stability / shelf life at room temperature [1]: exceeding one year
stability / shelf life at room temperature ([1]; listed as reduced water content oxaloacetate form): exceed one year
product decay ([1]; room temperatures, shelf life exceeding one year): less than 1%
Glucose Fasting, August 2007 ([2]; 100 mg daily for 6 months, February 2007 baseline 97): 89 mg/dL
Glucose Fasting % Change [2, 13]: 8.25%
Triglyceride % Change [2, 13]: 8.93%
Creatinine, August 2007 ([2]; after 6 months, baseline 1): 0.9 mg/dL
TSH, August 2007 ([2]; after 6 months, baseline 1.41): 1.32 uIU/ml
Albumin, August 2007 ([2]; after 6 months, baseline 4.4): 4.2 g/dL
K (Potassium), August 2007 ([2]; after 6 months, baseline 4.6): 4.5 mEq/L
Bun-Ser, August 2007 ([2]; after 6 months, baseline 14): 12 mg/dL
AST (SGOT), August 2007 ([2]; after 6 months, baseline 16): 15 IU/L
Lipase, August 2007 ([2]; after 6 months, baseline 17): 19 u/l
CO2 (Carbon Dioxide), August 2007 ([2]; after 6 months, baseline 27): 29 mEq/L
ALK P'TASE, August 2007 ([2]; after 6 months, baseline 36): 37 IU/L
HDL Ser Cholesterol, August 2007 ([2]; after 6 months, baseline 42): 42 mg/dL
Cl (Chloride), August 2007 ([2]; after 6 months, baseline 110): 108 mEq/L
Triglyceride, August 2007 ([2]; after 6 months, baseline 112): 102 mg/dL
LDL Cholesterol, August 2007 ([2]; after 6 months, baseline 138): 138 mg/dL
Na (Sodium), August 2007 ([2]; after 6 months, baseline 144): 143 mEq/L
Total Cholesterol, August 2007 ([2]; after 6 months, baseline 202): 203 mg/dL
Ending Weight May 2007 ([3]; 100 mg daily, three month period, starting weight 258): 234 pounds
Percent Reduction of weight ([3]; February 2007 to May 2007): 9.3%
liver genes Acaa1, Cnbp, Fasn, Idil, Ndufabl, Pcx, Sc5d (human homologues) [4]: down regulates
regain of weight lost ([4]; one-year period after the diet, 24 pounds lost): does not regain the weight lost
decrease of blood pressure [5]: 10%
decrease of amplitude of swings in fasting glucose [6]: 55%
drop of overall fasting glucose levels [6]: 8%

shelf life [1]: no shelf life
time of stability [1]: less than one-week's time
Compound: O=C(O)CC(O)(O)C(=O)O [hydrated form of oxaloacetic acid]

Compound: O=C(O)CC(=O)C(=O)O [oxaloacetic acid]
side effects ([7]; 100 mg to 1,000 mg (2-10 mg/kg)): no negative side effects
blood glucose levels ([7]; 100 mg to 1,000 mg): dropped significantly in all patents
patients in whom urine glucose levels dropped ([7]; 100 mg to 1,000 mg): 19 out of the 21
time to decarboxylation ([1]; divalent cations in the fluid): within a day
effect on cancer tissue [8]: differential massive debris within the cancer tissue
blood-brain barrier penetration [9]: can penetrate the blood-brain barrier
time until most is moved from the blood stream into individual cells [10]: ≤ 120 min
pancreas findings at 41 mg/kg of body weight (rats; 41 mg/kg): proliferation and hyperplasia of the islet cells
pancreas findings at 83 mg/kg of body weight (rats; 83 mg/kg): caused changes in pancreatic islets
fraction in the enol form [11]: 11%
fraction in the hydrated form [11]: 5%
fraction in the keto form [11]: 84%
NOAEL at 90 days (in vivo): 500 mg/kg
lifespan of worms with non-functional alpha AMPK subunit (C. elegans): no increase in lifespan
lifespan of worms with non-functional alpha AMPK subunit (C. elegans; listed as OAA): will not increase the lifespan
lifespan of wild type worms subjected to calorie restriction (C. elegans; functional AMPK, calorie restriction plus OAA supplementation): do not have their lifespan increased
increase of lifespan (C. elegans): approximately 25%
increase of lifespan (C. elegans; listed as OAA): 25%
drop in triglyceride levels [12]: 10%
reduction in the amplitude of fasting blood glucose levels [12]: 55%
LD50 (mouse; acute study, taken with food): more than 5,000 mg OAA/Kg of mouse
LD50 (mouse; mouse, in vivo): above 5 g/kg of body weight
lived longer than the control group (older mice): 25%

Compound: O=C([O-])CC(=O)C(=O)O.[Na+] [sodium oxaloacetate]
shelf life [1]: no shelf life
fraction in the enol form [11]: 11%
fraction in the hydrated form [11]: 5%
fraction in the keto form [11]: 84%
